Assay results reported in paper PMC3265452 (PLoS Neglected Tropical Diseases, 2012).
Structures can show the parent of a compound that is named as a salt.

What follows are compounds tested against AaDOP2 (Aedes aegypti, UniProt H6D5H2) (assay: AaDOP2 antagonist screen of the LOPAC1280 library (HEK-CRELuc-Aadop2 cells, luminescence)). Details: not given.
Type: cell-based

Sequence of AaDOP2 (H6D5H2 1-476): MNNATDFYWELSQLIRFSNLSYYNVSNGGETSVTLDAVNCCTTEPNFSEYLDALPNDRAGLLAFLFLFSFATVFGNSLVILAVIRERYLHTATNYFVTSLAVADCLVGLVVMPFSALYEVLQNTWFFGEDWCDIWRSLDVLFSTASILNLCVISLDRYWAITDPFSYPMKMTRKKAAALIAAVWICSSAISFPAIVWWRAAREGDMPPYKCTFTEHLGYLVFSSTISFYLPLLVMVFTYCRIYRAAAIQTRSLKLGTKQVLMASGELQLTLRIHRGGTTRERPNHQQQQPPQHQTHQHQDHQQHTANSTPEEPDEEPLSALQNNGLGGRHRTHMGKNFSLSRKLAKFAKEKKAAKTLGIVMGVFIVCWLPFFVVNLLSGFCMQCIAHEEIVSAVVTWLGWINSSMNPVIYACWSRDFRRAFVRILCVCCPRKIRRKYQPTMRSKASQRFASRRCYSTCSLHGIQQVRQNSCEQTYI

Row | SMILES | Compound effect (percent receptor signaling in presence of test compound, relative lux units relative to the SCH23390 control)
1 | C[C@]12CC[C@@H](O)C[C@@H]1CC[C@@H]1[C@@H]2CC[C@]2(C)[C@@H](C(=O)CO)CC[C@@H]12 [Compound 930, 3-alpha,21-Dihydroxy-5-alpha-pregnan-20-one] | 96
2 | Cc1ccc(=O)n(-c2ccccc2)c1 [Compound 931, Pirfenidone] | 102
3 | Cn1c(=O)c2[nH]c(-c3ccccc3)nc2n(C)c1=O [Compound 932, 1,3-Dimethyl-8-phenylxanthine] | 107
4 | N=C1Sc2ccccc2C2=NCCCN12 [Compound 935, PD 404,182] | 101
5 | COc1ccc(Cc2nccc3cc(OC)c(OC)cc23)cc1OC [Compound 936, Papaverine hydrochloride] | 92
6 | S=C(Nc1ccccc1)Nc1nccs1 [Compound 938, 1-Phenyl-3-(2-thiazolyl)-2-thiourea] | 84
7 | C=C/C(C)=C/[C@@]1(C)SC(=O)C(C)=C1O [Compound 939, Thiolactomycin] | 96
8 | N.N.[Cl][Pt][Cl] [Compound 940, Cisplatin] | 88
9 | COc1cc([C@@H]2c3cc4c(cc3[C@H](O)[C@H]3COC(=O)[C@H]23)OCO4)cc(OC)c1OC [Compound 941, Podophyllotoxin] | 84
10 | CC(C)[C@H](CO)Nc1nc(Nc2cccc(Cl)c2)c2ncn(C(C)C)c2n1 [Compound 942, Purvalanol A] | 7
11 | C[C@H](Cc1ccccc1)Nc1ncnc2c1ncn2[C@@H]1O[C@H](CO)[C@@H](O)[C@H]1O [Compound 944, R(-)-N6-(2-Phenylisopropyl)adenosine] | 112
12 | CCCC(CCC)C(=O)O [Compound 945, Valproic acid sodium] | 85
13 | O=C(C1CCCCC1)N1CC(=O)N2CCc3ccccc3C2C1 (stereo not shown) [Compound 947, Praziquantel] | 81
14 | CCCNCC(O)COc1ccccc1C(=O)CCc1ccccc1 (stereo not shown) [Compound 948, Propafenone hydrochloride] | 74
15 | CC(=O)[C@H]1CC[C@H]2[C@@H]3CC[C@H]4C[C@H](O)CC[C@]4(C)[C@H]3C(=O)C[C@]12C [Compound 949, 5alpha-Pregnan-3alpha-ol-11,20-dione] | 89
16 | CN1C(C)(C)CCCC1(C)C [Compound 950, Pempidine tartrate] | 100
17 | NC(=O)CN1CCCC1=O [Compound 951, Piracetam] | 103
18 | C[C@@H]1O[C@@H]1P(=O)(O)O [Compound 952, Phosphomycin disodium] | 104
19 | COc1ccc(CN(CCN(C)C)c2ccccn2)cc1 [Compound 953, Pyrilamine maleate] | 59
20 | CN1C(C(=O)Nc2ccccn2)=C(O)c2ccccc2S1(=O)=O [Compound 954, Piroxicam] | 83
21 | CCCn1c(=O)[nH]c(=O)c2[nH]cnc21 [Compound 955, 3-n-Propylxanthine] | 93
22 | CNC[C@H](O)c1cccc(O)c1 [Compound 956, Phenylephrine hydrochloride] | 93
23 | OCCN1CCN(CCCN2c3ccccc3Sc3ccc(Cl)cc32)CC1 [Compound 957, Perphenazine] | 5

Row | SMILES | Compound effect (percent receptor signaling in presence of test compound, relative lux units relative to the SCH23390 control)
24 | C1CCc2nnnn2CC1 [Compound 958, Pentylenetetrazole] | 94
25 | CC[C@@H]1C(=O)OC[C@@H]1Cc1cncn1C [Compound 960, Pilocarpine nitrate] | 96
26 | CN(C)CCCN1c2ccccc2Sc2ccccc21 [Compound 961, Promazine hydrochloride] | 12
27 | NNCCc1ccccc1 [Compound 962, Phenelzine sulfate] | 93
28 | CN(C)CCC(c1ccccc1)c1ccccn1 (stereo not shown) [Compound 963, Pheniramine maleate] | 91
29 | O=C(O)CP(=O)(O)O [Compound 964, Phosphonoacetic acid] | 84
30 | CCC1(c2ccccc2)C(=O)NCNC1=O [Compound 967, Primidone] | 94
31 | CN1CCN(CC(=O)N2c3ccccc3C(=O)Nc3cccnc32)CC1 [Compound 969, Pirenzepine dihydrochloride] | 114
32 | NCCCCN [Compound 970, Putrescine dihydrochloride] | 88
33 | Cc1ccc(N(CC2=NCCN2)c2cccc(O)c2)cc1 [Compound 971, Phentolamine mesylate] | 42
34 | CCC(=O)c1ccc2c(c1)N(CCCN(C)C)c1ccccc1S2 [Compound 972, Propionylpromazine hydrochloride] | 15
35 | COc1cc2nc(N3CCN(C(=O)c4ccco4)CC3)nc(N)c2cc1OC [Compound 973, Prazosin hydrochloride] | 81
36 | O=C(CCc1ccc(O)cc1)c1c(O)cc(O)cc1O [Compound 974, Phloretin] | 99
37 | C#CCN(C)Cc1ccccc1 [Compound 975, Pargyline hydrochloride] | 95
38 | CCCCCCCCCCCCCC(=O)O[C@@H]1[C@@H](C)[C@@]2(O)[C@@H](C=C(CO)C[C@]3(O)C(=O)C(C)=C[C@@H]23)[C@@H]2C(C)(C)[C@]12OC(C)=O [Compound 976, Phorbol 12-myristate 13-acetate] | 12
39 | C=CC1=C(C)c2cc3[nH]c(cc4nc(cc5[nH]c(cc1n2)c(C)c5CCC(=O)O)C(CCC(=O)O)=C4C)c(C)c3C=C [Compound 978, Protoporphyrin IX disodium] | 86
40 | CCCCC1C(=O)N(c2ccccc2)N(c2ccccc2)C1=O [Compound 980, Phenylbutazone] | 96
41 | COc1ccc(C(=O)NCc2cccnc2)cc1C(=O)NCc1cccnc1 [Compound 981, Picotamide] | 84
42 | N[C@@H]1C[C@H]1c1ccccc1 [Compound 982, Tranylcypromine hydrochloride] | 73
43 | CC(C)NC[C@H](O)COc1cccc2ccccc12 [Compound 983, (S)-Propranolol hydrochloride] | 90
44 | CNCCCC1c2ccccc2C=Cc2ccccc21 [Compound 986, Protriptyline hydrochloride] | 18
45 | CCCN1C[C@H](CSC)C[C@@H]2c3cccc4[nH]cc(c34)C[C@H]21 [Compound 987, Pergolide methanesulfonate] | 53
46 | O=c1[nH]c2ccccc2c2ccccc12 [Compound 988, 6(5H)-Phenanthridinone] | 90

Same assay, conditions: 10 µM compound, 300 nM dopamine, 2 hr; hit = compound effect <20

Row | SMILES | Compound effect (percent receptor signaling in presence of test compound, relative lux units relative to the SCH23390 control) [%]
47 | Cc1nc(N=Nc2cc(S(=O)(=O)[O-])c3cc([N+](=O)[O-])cc(S(=O)(=O)[O-])c3c2)c(COP(=O)([O-])[O-])c(C=O)c1O.[Na+].[Na+].[Na+].[Na+] [Compound 934, PPNDS tetrasodium] | 106
48 | C[N+]1(CCCCC[N+]2(C)CCCC2)CCCC1.O=C([O-])C(O)C(O)C(=O)O.O=C([O-])C(O)C(O)C(=O)O [Compound 937, Pentolinium di[L(+)-tartrate]] | 94
49 | CC[C@@H]1C(=O)OC[C@@H]1Cc1cncn1C.Cl [Compound 959, (+)-Pilocarpine hydrochloride] | 104
50 | Br.Br.N=C(N)SCCc1cccc(CCSC(=N)N)c1 [Compound 977, 1,3-PBIT dihydrobromide] | 117
51 | Br.Br.N=C(N)SCCc1ccc(CCSC(=N)N)cc1 [Compound 979, 1,4-PBIT dihydrobromide] | 120
52 | N.S=C(S)N1CCCC1 [Compound 984, Ammonium pyrrolidinedithiocarbamate] | 85

Same assay, conditions: read-out: % of the SCH23390 effect (percent inhibition of receptor response relative to the SCH23390 control)

Row | SMILES | inhibition at 10 µM [%]
53 | CC(C)[C@H](CO)Nc1nc(Nc2cccc(Cl)c2)c2ncn(C(C)C)c2n1 [Compound 942, Purvalanol A] | 93
54 | OCCN1CCN(CCCN2c3ccccc3Sc3ccc(Cl)cc32)CC1 [Compound 957, Perphenazine] | 95
55 | CN(C)CCCN1c2ccccc2Sc2ccccc21 [Compound 961, Promazine hydrochloride] | 88
56 | CCC(=O)c1ccc2c(c1)N(CCCN(C)C)c1ccccc1S2 [Compound 972, Propionylpromazine hydrochloride] | 85
57 | CCCCCCCCCCCCCC(=O)O[C@@H]1[C@@H](C)[C@@]2(O)[C@@H](C=C(CO)C[C@]3(O)C(=O)C(C)=C[C@@H]23)[C@@H]2C(C)(C)[C@]12OC(C)=O [Compound 976, Phorbol 12-myristate 13-acetate] | 88
58 | CNCCCC1c2ccccc2C=Cc2ccccc21 [Compound 986, Protriptyline hydrochloride] | 82
